Assay results as given in patent publication US11389415B2, “Methods of regulating cannabinoid receptor activity-related disorders and diseases” (The United States of America as represented by the …, priority 2012, dated 2022).

Tested on: rat C6 glioma xenografts
Assay: Gene expression profiling (microarray, GO term and PAGE gene set analysis) in rat C6 glioma xenografts
Format: in vivo, mouse
Conditions: for Z score, GO0000775 Chromosome pericentric region / Z score, GO0004527 Exonuclease activity / Z score, GO0005634 Nucleus / Z score, GO0006260 DNA replication / Z score, GO0006270 DNA replication initiation / Z score, GO0007049 Cell cycle / Z score, GO0007051 Spindle organization and biogenesis / Z score, GO0007067 Mitosis / Z score, GO0048015 Phosphoinositide mediated signaling / Z score, GO0051301 Cell division: MNF_Crtl
Experimental: Analysis of gene expression in rat C6 glioma xenografts. Total RNA was isolated from rat C6 glioma xenografts harvested from vehicle and MNF-treated mice (n=3 per group, cohort 1). This analysis was repeated in a second cohort of animals (n=3 per group, cohort 2). Total cellular RNA was extracted using an RNeasy plus mini kit (QIAGEN, Valencia, Calif.), and its quality was assessed using an Agilent BioAnalyzer using RNA 6000 Nano Chips (Agilent Technologies, Santa Clara, Calif.). Transcriptional profiling was determined using Illumina Sentrix BeadChips (Illumina, San Diego, Calif.). Total RNA was used to generate biotin-labeled cRNA with the Illumina TotalPrep RNA Amplification Kit. In short, 0.5 ug of total RNA was first converted into single-stranded cDNA with reverse transcriptase using an oligo-dT primer containing the T7 RNA polymerase promoter site and then copied to produce double-stranded cDNA molecules. The double-stranded cDNA was cleaned and concentrated with the supplied columns and used in an overnight in-vitro transcription reaction where single-stranded RNA (cRNA) was generated incorporating biotin-16-UTP. A total of 0.75 μg of biotin-labeled cRNA was hybridized at 58° C. for 16 hours to Illumina's Sentrix Rat Ref-12 Expression BeadChips. Each BeadChip has ˜22,000 well-annotated RefSeq transcripts with approximately 30-fold redundancy. The arrays were washed, blocked and the labeled cRNA was detected by staining with streptavidin-Cy3. Hybridized arrays were scanned using an Illumina BeadStation 500× Genetic Analysis Systems scanner and the image data extracted using Illumina's GenomeStudio software, version 1.6.1. For statistical analysis, the expression data were filtered to include only probes with a consistent signal on each chip and an Illumina detecton p value <0.02.
Correlation analysis, sample clustering analysis and principal component analysis was performed to identify/exclude any possible outliers. The resulting dataset was next analyzed with DIANE 6.0, a spreadsheet-based microarray analysis program using value statistics for Z-Score reliability below 0.05; and mean background-corrected signal intensity greater than zero.
Gene set enrichment analysis use gene expression values or gene expression change values for all of the genes in the microarray. Parametric analysis of gene set enrichment (PAGE) was used using the WEB-PAGE GSA tool for gene set analysis. Gene Sets include the MSIG database, Gene Ontology Database, GAD human disease and mouse phenotype gene sets were used to explore functional level changes. Gene-gene interaction was also analyzed using the INGENUITY® Pathway Analysis (IPA) system (INGENUITY® Systems).

[1] = Table 9, gene sets influenced by MNF treatment

COc1ccc(C[C@@H](C)NC[C@H](O)c2cc(O)cc(O)c2)c2ccccc12 [(R,R′)-MNF, (R,R′)-4′-methoxy-1-naphthylfenoterol]
Z score, SHEPARD_GENES_COMMON_BW_CB_MO (MNF_Control, cohort 2): −4.3867 | Z score, STEMCELL_NEURAL_UP (MNF_Control, cohort 2): −5.0064 | Z score, TARTE_MATURE_PC (MNF_Control, cohort 2): 5.3293 | Z score, TARTE_PLASMA_BLASTIC (MNF_Control, cohort 2): −6.7905 | Z score, VERNELL_PRB_CLSTR1 (MNF_Control, cohort 2): −6.5636 | Z score, YU_CMYC_UP (MNF_Control, cohort 2): −7.3723 | Z score, ZHAN_MM_CD138_PR_VS_REST (MNF_Control, cohort 2): −9.0080 | Z score, ADIP_DIFF_CLUSTERS (MNF_Control, combined cohorts): −7.9684 | Z score, ATRBRCAPATHWAY (MNF_Control, combined cohorts): −3.4407 | Z score, BRCA_PROGNOSIS_NEG (MNF_Control, combined cohorts): −6.5976 | Z score, BRENTANI_REPAIR (MNF_Control, combined cohorts): −4.2370 | Z score, CANCER_UNDIFFERENTIATED_META_UP (MNF_Control, combined cohorts): −7.7981 | Z score, CELL_CYCLE (MNF_Control, combined cohorts): −8.6730 | Z score, CELL_CYCLE_KEGG (MNF_Control, combined cohorts): −7.8764 | Z score, CMV_IE86_UP (MNF_Control, combined cohorts): −8.5032 | Z score, CROONQUEST_IL6_STARVE_UP (MNF_Control, combined cohorts): −10.7172 | Z score, CROONQUIST_IL6_RAS_DN (MNF_Control, combined cohorts): −9.7453 | Z score, DAC_FIBRO_DN (MNF_Control, combined cohorts): −6.4794 | Z score, DNA_REPLICATION_REACTOME (MNF_Control, combined cohorts): −7.3185 | Z score, DOX_RESIST_GASTRIC_UP (MNF_Control, combined cohorts): −10.1840 | Z score, E2F1_DNA_UP (MNF_Control, combined cohorts): −5.4288 | Z score, GAY_YY1_DN (MNF_Control, combined cohorts): −7.4972 | Z score, GOLDRATH_HP (MNF_Control, combined cohorts): −3.4750 | Z score, HDACI_COLON_BUT12 HRS_UP (MNF_Control, combined cohorts): 5.8481 | Z score, HDACI_COLON_BUT16HRS_UP (MNF_Control, combined cohorts): 4.8024 | Z score, HDACI_COLON_BUT24HRS_UP (MNF_Control, combined cohorts): 4.4492 | Z score, HDACI_COLON_TSABUT_UP (MNF_Control, combined cohorts): 5.2313 | Z score, HIPPOCAMPUS_DEVELOPMENT_POSTNATAL (MNF_Control, combined cohorts): 11.4209 | Z score, HOFFMANN_BIVSBII_BI_TABLE2 (MNF_Control, combined cohorts): −8.5773 | Z score, HYPOPHYSECTOMY_RAT_DN (MNF_Control, combined cohorts): 5.3951 | Z score, IDX_TSA_UP_CLUSTER3 (MNF_Control, combined cohorts): −11.3388 | Z score, IRITANI_ADPROX_LYMPH (MNF_Control, combined cohorts): −5.7142 | Z score, KAMMINGA_EZH2_TARGETS (MNF_Control, combined cohorts): −8.8163 | Z score, KENNY_WNT_UP (MNF_Control, combined cohorts): −6.9481 | Z score, LAMB_CYCLIN_D3_GLOCUS (MNF_Control, combined cohorts): −5.0503 | Z score, LEE_TCELLS2_UP (MNF_Control, combined cohorts): −6.9464 | Z score, LEE_TCELLS3_UP (MNF_Control, combined cohorts): −10.3427 | Z score, LI_FETAL_VS_WT_KIDNEY_DN (MNF_Control, combined cohorts): −10.4609 | Z score, MANALO_HYPOXIA_DN (MNF_Control, combined cohorts): −6.7155 | Z score, MIDDLEAGE_DN (MNF_Control, combined cohorts): −8.2457 | Z score, MOREAUX_TACI_HI_IN_PPC_UP (MNF_Control, combined cohorts): −4.9180 | Z score, MOREAUX_TACI_HI_VS_LOW_DN (MNF_Control, combined cohorts): −5.1872 | Z score, OLDAGE_DN (MNF_Control, combined cohorts): −8.1220 | Z score, P21_P53_ANY_DN (MNF_Control, combined cohorts): −8.8530 | Z score, PEART_HISTONE_DN (MNF_Control, combined cohorts): −5.7817 | Z score, PODI_KO_UP (MNF_Control, combined cohorts): −5.1416 | Z score, PRMT5_KD_UP (MNF_Control, combined cohorts): −8.9362 | Z score, REN_E2F1_TARGETS (MNF_Control, combined cohorts): −4.4393 | Z score, SASAKI_ATL_UP (MNF_Control, combined cohorts): −7.2897 | Z score, SASAKI_TCELL_LYMPHOMA_VS_CD4_UP (MNF_Control, combined cohorts): −7.2897 | Z score, SERUM_FIBROBLAST_CELLCYCLE (MNF_Control, combined cohorts): −12.2668 | Z score, SHEPARD_BMYB_MORPHOLINO_DN (MNF_Control, combined cohorts): −6.0639 | Z score, SHEPARD_CRASH_AND_BURN_MUT_VS_WT_DN (MNF_Control, combined cohorts): −5.5788 | Z score, SHEPARD_GENES_COMMON_BW_CB_MO (MNF_Control, combined cohorts): −5.7440 | Z score, STEMCELL_NEURAL_UP (MNF_Control, combined cohorts): −7.2833 | Z score, TARTE_MATURE_PC (MNF_Control, combined cohorts): 6.8026 | Z score, TARTE_PLASMA_BLASTIC (MNF_Control, combined cohorts): −8.3308 | Z score, VERNELL_PRB_CLSTR1 (MNF_Control, combined cohorts): −7.4144 | Z score, YU_CMYC_UP (MNF_Control, combined cohorts): −8.4501 | Z score, ZHAN_MM_CD138_PR_VS_REST (MNF_Control, combined cohorts): −10.7002 | Z score, GO0000775 Chromosome pericentric region (Combined): −6.3081 | Z score, GO0004527 Exonuclease activity (Combined): −5.8765 | Z score, GO0005634 Nucleus (Combined): −9.4291 | Z score, GO0006260 DNA replication (Combined): −7.3157 | Z score, GO0006270 DNA replication initiation (Combined): −5.0248 | Z score, GO0007049 Cell cycle (Combined): −9.3510 | Z score, GO0007051 Spindle organization and biogenesis (Combined): −6.7039 | Z score, GO0007067 Mitosis (Combined): −10.1574 | Z score, GO0048015 Phosphoinositide mediated signaling (Combined): −5.2545 | Z score, GO0051301 Cell division (Combined): −10.1585 | Z score, GO0000775 Chromosome pericentric region (Set 1): −6.7644 | Z score, GO0004527 Exonuclease activity (Set 1): −2.5829 | Z score, GO0005634 Nucleus (Set 1): −2.1680 | Z score, GO0006260 DNA replication (Set 1): −4.7695 | Z score, GO0006270 DNA replication initiation (Set 1): −4.0283 | Z score, GO0007049 Cell cycle (Set 1): −5.1361 | Z score, GO0007051 Spindle organization and biogenesis (Set 1): −4.6166 | Z score, GO0007067 Mitosis (Set 1): −7.5266 | Z score, GO0048015 Phosphoinositide mediated signaling (Set 1): −4.2781 | Z score, GO0051301 Cell division (Set 1): −6.9059 | Z score, GO0000775 Chromosome pericentric region (Set 2): −3.5296 | Z score, GO0004527 Exonuclease activity (Set 2): −5.4622 | Z score, GO0005634 Nucleus (Set 2): −9.9454 | Z score, GO0006260 DNA replication (Set 2): −6.0446 | Z score, GO0006270 DNA replication initiation (Set 2): −3.7775 | Z score, GO0007049 Cell cycle (Set 2): −8.0162 | Z score, GO0007051 Spindle organization and biogenesis (Set 2): −5.2288 | Z score, GO0007067 Mitosis (Set 2): −7.6563 | Z score, GO0048015 Phosphoinositide mediated signaling (Set 2): −3.5441 | Z score, GO0051301 Cell division (Set 2): −8.0673 | Z score, CELL_CYCLE [1]: −7.4222 | Z score, CROONQUIST_IL6_STARVE_UP [1]: −9.0059 | Z score, HDACI_COLON_BUT12 HRS_UP [1]: 3.6676 | Z score, HIPPOCAMPUS_DEVELOPMENT_POSTNATAL [1]: 10.3511 | Z score, HYPOPHYSECTOMY_RAT_DN [1]: 3.9294 | Z score, IDX_TSA_UP_CLUSTER3 [1]: −10.1593 | Z score, P21_P53_ANY_DN [1]: −7.4300 | Z score, SERUM_FIBROBLAST_CELLCYCLE [1]: −10.6997 | Z score, TARTE_MATURE_PC [1]: 5.3293
